Laboratory results published in US20170050957A1, “4-AMINO-6-(HETEROCYCLIC)PICOLINATES AND 6-AMINO-2-(HETEROCYCLIC)PYRIMIDINE-4-CARBOXYLATES AND THEIR USE AS HERBICIDES” (Dow AgroSciences LLC, priority 2013, published 2017).
Where two headings read alike, the source gives them in different places.

Experiments:
[1] = tested on: Key Grass and Sedge Weeds as well as Grass Crops; assay: Post-emergent Test II herbicidal activity (Table 16); type: in vivo; settings: post-emergence, 336 h, 14 days after application; for pest or weed control at 35 g/ha: 35 g ai/ha; for pest or weed control at 70 g/ha: 70 g ai/ha; for pest or weed control at 140 g/ha: 140 g ai/ha
Outline: (§1)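 Plants grown in greenhouse (~15 h photoperiod, 23-29 °C day, 22-28 °C night) to first or second true leaf stage, then sprayed post-emergence at 187 L/ha with a high rate and 1/2×, 1/4×, 1/8× and 1/16× dilutions. Injury scored visually after 14 d, 0-100% versus untreated plants.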

[2] = tested on: Key Broadleaf Weed and Crop Species; assay: Post-emergent Test II herbicidal activity (Table 15); type: in vivo; settings: post-emergence, 336 h, 14 d; for pest or weed control at 35 g/ha: 35 g ai/ha; for pest or weed control at 70 g/ha: 70 g ai/ha; for pest or weed control at 140 g/ha: 140 g ai/ha
Outline: as §1

[3] = Cyperus esculentus, yellow nutsedge (Cyperus esculentus), read-out: Visual Growth Reduction (%) 14 Days After Application CYPES
[4] = Echinochloa crus-galli, barnyardgrass (Echinochloa crus-galli), read-out: Visual Growth Reduction (%) 14 Days After Application ECHCG
[5] = Oryza sativa, rice (Oryza sativa), read-out: Visual Growth Reduction (%) 14 Days After Application ORYSA
[6] = Triticum aestivum, wheat, spring (Triticum aestivum), read-out: Visual Growth Reduction (%) 14 Days After Application TRZAS
[7] = Zea mays, maize, corn (Zea mays), read-out: Visual Growth Reduction (%) 14 Days After Application ZEAMX
[8] = Abutilon theophrasti, velvetleaf (Abutilon theophrasti), read-out: Visual Growth Reduction (%) 14 Days After Application, ABUTH
[9] = Amaranthus retroflexus, redroot pigweed (Amaranthus retroflexus), read-out: Visual Growth Reduction (%) 14 Days After Application, AMARE
[10] = Brassica napus, oilseed rape, canola (Brassica napus), read-out: Visual Growth Reduction (%) 14 Days After Application, BRSNN
[11] = Chenopodium album, lambsquarters (Chenopodium album), read-out: Visual Growth Reduction (%) 14 Days After Application, CHEAL
[12] = Euphorbia heterophylla, wild poinsettia (Euphorbia heterophylla), read-out: Visual Growth Reduction (%) 14 Days After Application, EPHHL
[13] = Helianthus annuus, sunflower (Helianthus annuus), read-out: Visual Growth Reduction (%) 14 Days After Application, HELAN
[14] = Setaria faberi, giant foxtail (Setaria faberi), read-out: Visual Growth Reduction (%) 14 Days After Application SETFA

Question: Which pest or weed control at 35 g/ha [1, 3] does the source give for `Nc1c(F)c(-c2ccc3ccsc3c2)nc(C(=O)O)c1Cl` [Compound 3.13] here?
Answer: 0 to 29%

Question: And the pest or weed control at 70 g/ha [1, 3]?
Answer: 0 to 29%

Question: And the pest or weed control at 140 g/ha [1, 3]?
Answer: 0 to 29%

Question: What about the pest or weed control at 35 g/ha [1, 4] of the same compound?
Answer: 60 to 74%

Question: What about the pest or weed control at 70 g/ha [1, 4] of the same compound?
Answer: 60 to 74%

Question: And the pest or weed control at 140 g/ha [1, 4]?
Answer: 75 to 84%

Question: What about the pest or weed control at 35 g/ha [1, 5] of the same compound?
Answer: 0 to 29%

Question: And the pest or weed control at 70 g/ha [1, 5]?
Answer: 0 to 29%

Question: What about the pest or weed control at 140 g/ha [1, 5] of the same compound?
Answer: 0 to 29%

Question: What about the pest or weed control at 35 g/ha [1, 6] of the same compound?
Answer: 0 to 29%

Question: What about the pest or weed control at 70 g/ha [1, 6] of the same compound?
Answer: 0 to 29%

Question: What about the pest or weed control at 140 g/ha [1, 6] of the same compound?
Answer: 0 to 29%

Question: And the pest or weed control at 35 g/ha [1, 7]?
Answer: 60 to 74%

Question: And the pest or weed control at 70 g/ha [1, 7]?
Answer: 60 to 74%

Question: And the pest or weed control at 140 g/ha [1, 7]?
Answer: 60 to 74%

Question: And the pest or weed control at 35 g/ha [2, 8]?
Answer: 0 to 29%

Question: What about the pest or weed control at 70 g/ha [2, 8] of the same compound?
Answer: 0 to 29%

Question: What about the pest or weed control at 140 g/ha [2, 8] of the same compound?
Answer: 75 to 84%

Question: And the pest or weed control at 35 g/ha [2, 9]?
Answer: 95 to 100%

Question: What about the pest or weed control at 70 g/ha [2, 9] of the same compound?
Answer: 95 to 100%

Question: And the pest or weed control at 140 g/ha [2, 9]?
Answer: 95 to 100%

Question: What about the pest or weed control at 35 g/ha [2, 10] of the same compound?
Answer: 0 to 29%

Question: And the pest or weed control at 70 g/ha [2, 10]?
Answer: 0 to 29%

Question: What about the pest or weed control at 140 g/ha [2, 10] of the same compound?
Answer: 60 to 74%

Question: And the pest or weed control at 35 g/ha [2, 11]?
Answer: 85 to 94%

Question: What about the pest or weed control at 70 g/ha [2, 11] of the same compound?
Answer: 95 to 100%

Question: And the pest or weed control at 140 g/ha [2, 11]?
Answer: 95 to 100%

Question: And the pest or weed control at 35 g/ha [2, 12]?
Answer: 0 to 29%

Question: What about the pest or weed control at 70 g/ha [2, 12] of the same compound?
Answer: 0 to 29%

Question: And the pest or weed control at 140 g/ha [2, 12]?
Answer: 60 to 74%

Question: What about the pest or weed control at 35 g/ha [2, 13] of the same compound?
Answer: 85 to 94%

Question: What about the pest or weed control at 70 g/ha [2, 13] of the same compound?
Answer: 85 to 94%

Question: What about the pest or weed control at 140 g/ha [2, 13] of the same compound?
Answer: 85 to 94%

Question: What about the melting point of the same compound?
Answer: 165 to 167 °C

Question: Which pest or weed control at 35 g/ha [1, 3] does the source give for `COC(=O)c1nc(-c2cc3sccc3cc2F)c(F)c(N)c1Cl` [Compound 3.14] here?
Answer: 0 to 29%

Question: What about the pest or weed control at 70 g/ha [1, 3] of the same compound?
Answer: 0 to 29%

Question: And the pest or weed control at 140 g/ha [1, 3]?
Answer: 0 to 29%

Question: And the pest or weed control at 35 g/ha [1, 4]?
Answer: 0 to 29%

Question: What about the pest or weed control at 70 g/ha [1, 4] of the same compound?
Answer: 0 to 29%

Question: And the pest or weed control at 140 g/ha [1, 4]?
Answer: 0 to 29%

Question: What about the pest or weed control at 35 g/ha [1, 5] of the same compound?
Answer: 0 to 29%

Question: What about the pest or weed control at 70 g/ha [1, 5] of the same compound?
Answer: 0 to 29%

Question: And the pest or weed control at 140 g/ha [1, 5]?
Answer: 0 to 29%

Question: What about the pest or weed control at 35 g/ha [1, 14] of the same compound?
Answer: 0 to 29%

Question: And the pest or weed control at 70 g/ha [1, 14]?
Answer: 0 to 29%

Question: And the pest or weed control at 140 g/ha [1, 14]?
Answer: 0 to 29%

Question: What about the pest or weed control at 35 g/ha [1, 6] of the same compound?
Answer: 0 to 29%

Question: What about the pest or weed control at 70 g/ha [1, 6] of the same compound?
Answer: 0 to 29%

Question: And the pest or weed control at 140 g/ha [1, 6]?
Answer: 0 to 29%

Question: What about the pest or weed control at 35 g/ha [1, 7] of the same compound?
Answer: 0 to 29%

Question: And the pest or weed control at 70 g/ha [1, 7]?
Answer: 30 to 44%

Question: What about the pest or weed control at 140 g/ha [1, 7] of the same compound?
Answer: 60 to 74%

Question: And the pest or weed control at 35 g/ha [2, 8]?
Answer: 0 to 29%

Question: What about the pest or weed control at 70 g/ha [2, 8] of the same compound?
Answer: 0 to 29%

Question: And the pest or weed control at 140 g/ha [2, 8]?
Answer: 0 to 29%

Question: What about the pest or weed control at 35 g/ha [2, 9] of the same compound?
Answer: 85 to 94%

Question: And the pest or weed control at 70 g/ha [2, 9]?
Answer: 95 to 100%

Question: And the pest or weed control at 140 g/ha [2, 9]?
Answer: 95 to 100%

Question: And the pest or weed control at 35 g/ha [2, 10]?
Answer: 0 to 29%

Question: What about the pest or weed control at 70 g/ha [2, 10] of the same compound?
Answer: 0 to 29%

Question: What about the pest or weed control at 140 g/ha [2, 10] of the same compound?
Answer: 0 to 29%

Question: And the pest or weed control at 35 g/ha [2, 11]?
Answer: 85 to 94%

Question: What about the pest or weed control at 70 g/ha [2, 11] of the same compound?
Answer: 85 to 94%

Question: And the pest or weed control at 140 g/ha [2, 11]?
Answer: 95 to 100%

Question: And the pest or weed control at 35 g/ha [2, 12]?
Answer: 30 to 44%

Question: What about the pest or weed control at 70 g/ha [2, 12] of the same compound?
Answer: 30 to 44%

Question: What about the pest or weed control at 140 g/ha [2, 12] of the same compound?
Answer: 60 to 74%

Question: And the pest or weed control at 35 g/ha [2, 13]?
Answer: 85 to 94%

Question: And the pest or weed control at 70 g/ha [2, 13]?
Answer: 85 to 94%

Question: And the pest or weed control at 140 g/ha [2, 13]?
Answer: 95 to 100%

Question: And the melting point?
Answer: 112 °C
